We go through 9 compounds from US9682954B2, “Phenanthridine derivatives, preparation methods and uses thereof” (Kunming Institute of Botany, The Chinese Academy of Sciences, priority 2013, dated 2017).

Each structure is given as a SMILES string. Where only a bound is given, the exact number is not on record here.

In one series the test system is HCV. Description: microbe, parasite or virus in culture. Type of series: cell-based, Hepatitis C Virus (HCV). Particulars: Huh7.5 cells infected with HCV, 72 hrs, intracellular HCV RNA by qRT-PCR, Reed-Muench method; read-out: EC50. As to the method:
(2) Anti-HCV Activity of the Compound in Cells:
The total RNA was extracted from the cells. The intracellular content of HCV and RNA of internal control gene GAPDH were determined by real-time fluorescence qRT-PCR.
On the technique in general: Quantitative PCR measures a nucleic acid by following its amplification.

For another series, the system named is Huh7.5 cells. Briefly: in vitro. The procedure:
(§1) (1) Toxicity Experiment of the Compound on Huh7.5:
(§2) 100 μL of Huh7.5 cells (1×10^5/ml) was inoculated in 96-wells plates and incubated in an incubator at 37° C. under 5% of CO2 and saturated humidity for 24 hrs. Then different concentration of the compound of the present invention and positive control (VX-950, telaprevir) were added respectively and incubated for a further 72 hrs. 10 μL of MTT (5 mg/mL) was added per well and incubated for another 4 hrs. After the cells were lysed with DMSO, OD570-630 […] was determined on ELIASA. In comparison with OD of the control group, inhibitory rate of each concentration on cell toxicity was calculated, and half toxic concentration of the compound was calculated with Reed-Muench method.

The next series deals with Wnt signaling pathway. Description: Activity assay of the reporter gene (Wnt signaling pathway activation, Wnt3a conditioned medium). Type of series: cell-based. The procedure:
After 6 hours, the cells are collected and activities of the report genes are determined.
Activity Assay of the Reporter Gene
HEK293T, HCT116, SW480 or NIH3T3 cells used for activity assay of the reporter gene were inoculated into 24-wells plates respectively 24 hours before transfection then transfected following the above mentioned reference method. The amount of the plasmids used for Transfection was: 20 ng of TOPFlash, NFAT-Luc, or SRF-Luc, and 25 ng of EGFP-C1 (HEK293T); 25 ng of LEF-Luc, 75 ng of LEF1, and 25 ng of EGFP-C1 (NIH3T3); 100 ng of TOPFlash or Fopfllash and 100 ng of EGFP-C1 (HCT116 and SW480). The cells were transfected with other plasmids following experimental requirements, LacZs were added to meet a total content of 250 ng (in RNAi and plasmid co-transfection experiments, 1 μl of siRNA was added when every 100 ng/well of the plasmid was transfected). Wnt3a conditioned medium was added 18 hours after transfection to stimulate the cells for 6-8 hours, the cells were lysed using Boehringer Mannheim Luci-ferase Assay Kit (200 μl/well). Intensity of GFP proteins in cell lysates were determined as internal standards of expression quantity of the cells using fluorescence meter FL600 (BIO-TEK Inc. Winooski, Vt.), and then 20 μl of luciferase substrates were added. Luciferase activity was determined with Micro Lumate Plus (Perkin Elmer Inc. Wellesley, Mass.) luminometer. Finally, the luciferase activity was homogenized using activity of GFP.

A short description of series [1]: Toxicity experiment of the compound on Huh7.5 (MTT). To be noted: human, CC50, Huh7.5 cells, 72 hrs, MTT, half toxic concentration by Reed-Muench method. The procedure: as §1, §2

Regarding `CCc1cccc2c1N(C)Cc1cc(OCc3cccc(OC)c3OC)c(OCc3cccc(OC)c3OC)cc1-2` [Compound 10h, 4-ethyl-5-methyl-8,9-di(2,3-dimethoxy)benzyloxy-5,6-dihydro-phenanthridine], in the series with HCV, the concentration for a half-maximal effect (EC50) stood at 4.32 ± 0.1 µM. This compound returned a CC50 with Huh7.5 cells of more than 100 µM.

In the case of `CCCCC(=O)Oc1cc2c(cc1OC(=O)CCCC)-c1cccc(CC)c1N(C)C2` [Compound 10m, 4-ethyl-5-methyl-8,9-divaleryoxy-5,6-dihydro-phenanthridine], in the series on HCV, the EC50 stood at 9.39 ± 0.46 µM. In addition, in the series on Huh7.5 cells, the CC50 was more than 100 µM.

Take `CCc1cccc2c1N(C)Cc1cc(OC(=O)c3ccc(Br)cc3)c(OC(=O)c3ccc(Br)cc3)cc1-2` [Compound 10p, 4-ethyl-5-methyl-8,9-di(4-bromo)benzoyloxy-5,6-dihydro-phenanthridine]: the concentration for a half-maximal effect (EC50) in the series on HCV turned out to be 1.19 ± 0.02 µM. The half-maximal cytotoxic concentration (CC50) in the series with Huh7.5 cells was more than 100 µM.

`CCc1cccc2c1N(C)Cc1cc(OCc3cn(CCN)nn3)c(OCc3cn(CCN)nn3)cc1-2` [Compound 10q, 4-ethyl-5-methyl-8,9-bis[1-(2-amino-ethyl)-1H-[1,2,3]triazol-4-ylmethoxy]-5,6-dihydro-phenanthridine] came in with a melting point of 196 to 197 °C. The “activation of the reporter gene systems of classical Wnt signaling pathway” value in the series on Wnt signaling pathway (in the way of depending on Wnt3a receptors) is “activate the reporter gene systems of classical Wnt signaling pathway”. In addition, the “Concentration of compounds for doubly synergetic activating Wnt reporter gene” value in the series with Wnt signaling pathway (reporter gene, with Wnt3a conditioned medium) came to 1.25 µM.

For the compound `C=Cc1cccc2c1N(C)Cc1cc(OCc3cccc(OC)c3OC)c(OCc3cccc(OC)c3OC)cc1-2` [Compound 11f, 4-ethenyl-5-methyl-8,9-di(2,3-dimethoxy)benzyloxy-5,6-dihydro-phenanthridine], the concentration for a half-maximal effect (EC50) in the series with HCV amounted to 0.3 ± 0.01 µM. The compound further registered a 50% cytotoxic concentration (CC50) with Huh7.5 cells of 32.9 ± 1.28 µM.

On to `C=Cc1cccc2c1N(C)Cc1cc(OCc3ccc(C#N)cc3)c(OCc3ccc(C#N)cc3)cc1-2` [Compound 11g, 4-ethenyl-5-methyl-8,9-di(4-cyano)benzyloxy-5,6-dihydro-phenanthridine], for which the EC50 in the series on HCV was more than 0.37 µM. Also, the CC50 with Huh7.5 cells was 25.9 ± 0.82 µM.

For the compound `C=Cc1cccc2c1N(C)Cc1cc(OC(=O)CCCC)c(OC(=O)CCCC)cc1-2` [Compound 11k, 4-ethenyl-5-methyl-8,9-divaleryoxy-5,6-dihydro-phenanthridine], the EC50 with HCV is 0.94 ± 0.02 µM. In the series with Huh7.5 cells, this compound returned a CC50 of more than 100 µM.

For `C=Cc1cccc2c1N(C)Cc1cc(OC(=O)c3ccc(Br)cc3)c(OC(=O)c3ccc(Br)cc3)cc1-2` [Compound 11n, 4-ethenyl-5-methyl-8,9-di(4-bromo)benzoyloxy-5,6-dihydro-phenanthridine], the EC50 with HCV came to 4.58 ± 0.55 µM. Besides, the CC50 in the series with Huh7.5 cells turned out to be 82.6 ± 3.28 µM.

`CCC[C@H](NC(=O)[C@@H]1[C@H]2CCC[C@H]2CN1C(=O)[C@@H](NC(=O)[C@@H](NC(=O)c1cnccn1)C1CCCCC1)C(C)(C)C)C(=O)C(=O)NC1CC1` [VX-950, telaprevir, reference compound] registered a CC50 with Huh7.5 cells (Huh7.5 cells, 72 hrs, MTT, half toxic concentration by Reed-Muench method) of 32.5 ± 0.58 µM. Moreover, the 50% cytotoxic concentration (CC50) at 72 h in series [1] turned out to be 39.5 ± 4.9 µM.

As usually defined, the EC50 is the concentration giving half of the maximal effect. For orientation: CC50 means the concentration giving 50% cytotoxicity. Lower therefore signals greater toxicity to the cells. In general, melting point refers to the temperature of the solid-liquid transition.
